# Tested on: P. falciparum 3D7 parasites
# Assay: Metabolomic profiling of compound-treated parasites (LC/MS);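 for Metabolite data: 3-Phosphoglycerate: Log2 fold change in abundance versus untreated parasite controls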;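 for Metabolite data: Myo-Inositol: Log2 fold change in abundance versus untreated parasite controls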;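 for Metabolite data: N-Carbamoyl-L-Aspartate: Log2 fold change in abundance versus untreated parasite controls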;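 for Metabolite data: Nicotinate: Log2 fold change in abundance versus untreated parasite controls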
# Format: cell-based
# Set-up: Metabolite data: dTMP / Metabolite data: GMP / Metabolite data: S-Adenosyl-L-Homocysteine / Metabolite data: 1_3-Bisphosphoglyceric acid: scale not given here
# Procedure: The metabolite extraction protocol was performed as described elsewhere ([Allman et al., 2016]). Briefly, 1 mL of trophozoites that were magnetically purified to a concentration of 1×10^8 parasites/mL were placed into wells with 4 mL of RPMI 1640 media and allowed to recover for one hour. […] The culture was incubated for another 2.5 hr. The culture was centrifuged and quenched with 90% methanol containing 0.25 μM ^13C,^15N-Labeled-Aspartate, vortexed, and centrifuged. The supernatant was transferred to a new tube and dried for storage. Prior to analysis, the samples were resuspended to a final concentration of 1×10^8 parasites/mL in a solution of 3% methanol:water containing 1 μM chlorpropamide as an internal standard.
# The chromatographic conditions used in this experiment were performed with slight modifications from previous methods ([Zhang et al., 2018]). Briefly, a Waters XSelect HSS C18 column was used on a gradient reverse-phase chromatographic configuration with 97:3 water:methanol with 10 mM tributylamine and 15 mM acetic acid (solvent A) and methanol (solvent B). A Thermo-Scientific Exactive Plus Orbitrap mass spectrometer was operated in negative mode for the detection of the metabolites. Peak picking and integration were performed using El-Maven LC/MS data processing software. The peak data were then exported to Excel where metabolite areas were normalized to the internal standards, blank subtracted, and averaged by condition.
smiles,measurement,value
CC1(C)N=C(N)N=C(N)N1OCCCOc1cc(Cl)c(Cl)cc1Cl [WR99210],Metabolite data: 1_3-Bisphosphoglyceric acid,0
same,Metabolite data: 2_3-Diphosphoglyceric acid,0.15
same,Metabolite data: 3-Phosphoglycerate,0
same,Metabolite data: 4-Aminobutyrate,0.89
same,Metabolite data: 4-Phosphopantothenate,0.06
same,Metabolite data: 4-phosphopantetheine,0
same,Metabolite data: 5-aminopentanoic acid,0
same,Metabolite data: 5-phosphoribosyl-1-pyrophosphate,0
same,Metabolite data: 6-Phospho-D-Gluconate,0.03
same,Metabolite data: ADP-D-Glucose,-0.24
same,Metabolite data: Acetyl-CoA,0.03
same,Metabolite data: Acetyllysine,0.3
same,Metabolite data: Aconitate,-0.02
same,Metabolite data: CDP,0.18
same,Metabolite data: CDP-Ethanolamine,0.69
same,Metabolite data: CDP-choline,0
same,Metabolite data: CMP,-0.07
same,Metabolite data: CTP,-0.11
same,Metabolite data: Citrate/Isocitrate,0.01
same,Metabolite data: Cyclic-AMP,0
same,Metabolite data: Dihydroorotate,0.21
same,Metabolite data: FAD,0.03
same,Metabolite data: FMN,-0.26
same,"Metabolite data: Fructose-1,6-Bisphosphate",0
same,Metabolite data: Fumarate,0.11
same,Metabolite data: GDP,0.23
same,Metabolite data: GMP,0.07
same,Metabolite data: GTP,-0.36
same,Metabolite data: Glucose-1/6-Phosphate,-0.02
same,Metabolite data: Glutathione Disulfide,0.14
same,Metabolite data: Hexose,0
same,Metabolite data: Hydroxyisocaproic acid,0
same,Metabolite data: Indole,0.05
same,Metabolite data: Ketoleucine,0
same,Metabolite data: L-arginino-succinate,0
same,Metabolite data: Lactate,0.42
same,Metabolite data: Malate,0.06
same,Metabolite data: Myo-Inositol,0.64
same,Metabolite data: N-Acetyl-Glutamate,0.09
same,Metabolite data: N-Acetyl-L-Alanine,0.02
same,Metabolite data: N-Acetyl-L-Ornithine,0.2
same,Metabolite data: N-Carbamoyl-L-Aspartate,0.03
same,Metabolite data: NAD+,0.17
same,Metabolite data: NADH,3.14
same,Metabolite data: NADP+,0.03
same,Metabolite data: NADPH,0.5
same,Metabolite data: Nicotinate,0.23
same,Metabolite data: Octulose 8/1-Phosphate,0.08
same,Metabolite data: Orotate,0.09
same,Metabolite data: PD,0
same,Metabolite data: PE,0
same,Metabolite data: PEEK,0
same,Metabolite data: Phenol Red,0
same,Metabolite data: Pyroglutamic acid,0.03
same,Metabolite data: S-Adenosyl-L-Homocysteine,0
same,Metabolite data: S-methyl-5'-thioadenosine,0.14
same,Metabolite data: SD,0
same,Metabolite data: Sedoheptulose Bisphosphate,0.08
same,Metabolite data: UDP,0.22
same,Metabolite data: UDP-D-Glucose,0.05
same,Metabolite data: UDP-D-Glucuronate,0.01
same,Metabolite data: UDP-N-Acetyl-Glucosamine,0.06
same,Metabolite data: UMP,0
same,Metabolite data: UTP,-0.42
same,Metabolite data: a-ketoglutarate,0.08
same,Metabolite data: acetyl-aspartate,0
same,Metabolite data: arginine,0
same,Metabolite data: asparagine,0
same,Metabolite data: aspartate,0
same,Metabolite data: biotin,0
same,Metabolite data: chlorpropamide,0
same,Metabolite data: coenzyme A,0
same,Metabolite data: dAMP,-0.3
same,Metabolite data: dATP,-0.89
same,Metabolite data: dCDP,0.46
same,Metabolite data: dCMP,0.32
same,Metabolite data: dCTP,0.42
same,Metabolite data: dGDP/ADP,0
same,Metabolite data: dGMP/AMP,0
same,Metabolite data: dGTP/ATP,0
same,Metabolite data: dTDP,0.16
same,Metabolite data: dTMP,-0.05
same,Metabolite data: dTTP,-0.28
same,Metabolite data: folate,0
same,Metabolite data: glucono-lactone,0
same,Metabolite data: glutamate,0
same,Metabolite data: glutamine,0
same,Metabolite data: glutathione,0
same,Metabolite data: histidine,0
same,Metabolite data: hydroxyproline/Aminolevulinate,0
same,Metabolite data: isoleucine,0
same,Metabolite data: leucine,0
same,Metabolite data: maleic acid,0
same,Metabolite data: methionine,0
same,Metabolite data: nicotinamide mononucleotide,0
same,Metabolite data: orotidine-5'-phosphate,0
CCN(CC)S(=O)(=O)c1ccc(Cl)c(C(=O)Nc2ccc3nc(C)sc3c2)c1 [MMV019721-1],Metabolite data: 1_3-Bisphosphoglyceric acid,-0.1327
same,Metabolite data: 2_3-Diphosphoglyceric acid,-0.1327
same,Metabolite data: 3-Phosphoglycerate,0.1031
same,Metabolite data: 4-Aminobutyrate,0.07842
same,Metabolite data: 4-Phosphopantothenate,-0.4201
same,Metabolite data: 4-phosphopantetheine,0.1181
same,Metabolite data: 5-aminopentanoic acid,0.1488
same,Metabolite data: 5-phosphoribosyl-1-pyrophosphate,-0.2633
same,Metabolite data: 6-Phospho-D-Gluconate,-0.03558
same,Metabolite data: ADP-D-Glucose,-0.0516
same,Metabolite data: Acetyl-CoA,-1.632
same,Metabolite data: Acetyllysine,-1.142
same,Metabolite data: Aconitate,0.3403
same,Metabolite data: CDP,0.8015
same,Metabolite data: CDP-Ethanolamine,-0.104
same,Metabolite data: CDP-choline,-0.1284
same,Metabolite data: CMP,0.9966
same,Metabolite data: CTP,0.6705
same,Metabolite data: Citrate/Isocitrate,0.04997
same,Metabolite data: Cyclic-AMP,0.2994
same,Metabolite data: Dihydroorotate,-0.5549
same,Metabolite data: FAD,0.1056
same,Metabolite data: FMN,-0.0123
same,"Metabolite data: Fructose-1,6-Bisphosphate",-0.009501
same,Metabolite data: Fumarate,0.02182
same,Metabolite data: GDP,0.2889
same,Metabolite data: GMP,0.4991
same,Metabolite data: GTP,0.06975
same,Metabolite data: Glucose-1/6-Phosphate,-0.427
same,Metabolite data: Glutathione Disulfide,0.05831
same,Metabolite data: Hexose,0.379
same,Metabolite data: Hydroxyisocaproic acid,-0.1664
same,Metabolite data: Indole,0.2013
same,Metabolite data: Ketoleucine,-0.05747
same,Metabolite data: L-arginino-succinate,0.0004889
same,Metabolite data: Lactate,0.02998
same,Metabolite data: Malate,0.2897
same,Metabolite data: Myo-Inositol,0.2086
same,Metabolite data: N-Acetyl-Glutamate,-0.6054
same,Metabolite data: N-Acetyl-L-Alanine,0.6768
same,Metabolite data: N-Acetyl-L-Ornithine,-0.7962
same,Metabolite data: N-Carbamoyl-L-Aspartate,-1.055
same,Metabolite data: NAD+,0.01132
same,Metabolite data: NADH,0.3116
same,Metabolite data: NADP+,-0.07183
same,Metabolite data: NADPH,0.3145
same,Metabolite data: Nicotinate,-0.004899
same,Metabolite data: Octulose 8/1-Phosphate,0.05155
same,Metabolite data: Orotate,-0.6691
same,Metabolite data: PD,-0.67
same,Metabolite data: PE,-0.6545
same,Metabolite data: PEEK,-0.6134
same,Metabolite data: Phenol Red,0.04234
same,Metabolite data: Pyroglutamic acid,0.6121
same,Metabolite data: S-Adenosyl-L-Homocysteine,-0.2319
same,Metabolite data: S-methyl-5'-thioadenosine,-0.02605
same,Metabolite data: SD,-0.5163
same,Metabolite data: Sedoheptulose Bisphosphate,-0.09842
same,Metabolite data: UDP,0.4977
same,Metabolite data: UDP-D-Glucose,0.03674
same,Metabolite data: UDP-D-Glucuronate,0.09403
same,Metabolite data: UDP-N-Acetyl-Glucosamine,-0.09294
same,Metabolite data: UMP,0.6643
same,Metabolite data: UTP,0.267
same,Metabolite data: a-ketoglutarate,0.1182
same,Metabolite data: acetyl-aspartate,0.3762
same,Metabolite data: arginine,0.5929
same,Metabolite data: asparagine,-0.2373
same,Metabolite data: aspartate,0.131
same,Metabolite data: biotin,-0.04985
same,Metabolite data: chlorpropamide,0.3559
same,Metabolite data: coenzyme A,0.324
same,Metabolite data: dAMP,0.02964
same,Metabolite data: dATP,0.04443
same,Metabolite data: dCDP,0.4313
same,Metabolite data: dCMP,0.6234
same,Metabolite data: dCTP,0.2767
same,Metabolite data: dGDP/ADP,0.453
same,Metabolite data: dGMP/AMP,0.01705
same,Metabolite data: dGTP/ATP,-0.2944
same,Metabolite data: dTDP,0.442
same,Metabolite data: dTMP,0.5345
same,Metabolite data: dTTP,-0.02333
same,Metabolite data: folate,0.09364
same,Metabolite data: glucono-lactone,0.02131
same,Metabolite data: glutamate,0.09413
same,Metabolite data: glutamine,0.06047
same,Metabolite data: glutathione,-0.1419
same,Metabolite data: histidine,-0.01478
same,Metabolite data: hydroxyproline/Aminolevulinate,0.7882
same,Metabolite data: isoleucine,0.1307
same,Metabolite data: leucine,0.06401
same,Metabolite data: maleic acid,0.03547
same,Metabolite data: methionine,0.07829
same,Metabolite data: nicotinamide mononucleotide,-0.2621
same,Metabolite data: orotidine-5'-phosphate,-2.856

# Source: paper PMC8878317, “Chemogenomics identifies acetyl-coenzyme A synthetase as a target for malaria treatment and prevention” (Cell Chemical Biology, 2022)
